According to patent US10383880B2 (Reset Therapeutics, Inc., priority 2012, dated 2019):

system: Per2-dLuc U2OS reporter cells; assay: Per2 assay for evaluating the potency of test compounds (high-throughput circadian assay); type: cell-based; details: Homo sapiens, U2OS, stable U2OS reporter cells harboring Per2-dLuc; luminescence monitored over 4-5 days at 35° C.
Procedure, shortened: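 After 24 h culture, U2OS cells carrying Per2-dLuc were serum-shock synchronized into explant medium with 1.0 mM luciferin (10 mM HEPES pH 7.0) and compound in 0.5% DMSO. Luminescence was recorded over 4–5 days at 35 °C. Circadian period, amplitude and phase were derived, and EC50 calculated.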

Compound	EC50 [nM]
CS(=O)(=O)N(Cc1ccco1)CC(O)Cn1c2ccc(F)cc2c2ccc(F)cc21 (stereo not shown) [Compound 102, N-(3-(2,6-Difluoro-9H-carbazol-9-yl)-2-hydroxypropyl)-N-(furan-2-ylmethyl)methanesulfonamide]	3250
CS(=O)(=O)N(CC(O)Cn1c2ccccc2c2ccccc21)C1CC(F)C1 (stereo not shown) [Compound 147, N-(3-(9H-Carbazol-9-yl)-2-hydroxypropyl)-N-(3-fluorocyclobutyl)methanesulfonamide]	980
CS(=O)(=O)N(CC(O)Cn1c2ccccc2c2ccccc21)C1CCCC(F)(F)C1 (stereo not shown) [Compound 134, N-(3-(9H-Carbazol-9-yl)-2-hydroxypropyl)-N-(3,3-difluorocyclohexyl)methanesulfonamide]	1080
O=S(=O)(CC(F)(F)F)N(Cc1ccco1)CC(O)Cn1c2ccccc2c2ccccc21 (stereo not shown) [Compound 7, N-(3-(9H-Carbazol-9-yl)-2-hydroxypropyl)-2,2,2-trifluoro-N-(furan-2-ylmethyl)ethanesulfonamide]	2100
CN1CCN(CC(O)Cn2c3ccc(F)cc3c3cc(F)ccc32)S1(=O)=O (stereo not shown) [Compound 173]	86
CS(=O)(=O)N(CC(O)Cn1c2ccccc2c2ccccc21)c1ccccc1 (stereo not shown) [Compound 23, N-(3-(9H-Carbazol-9-yl)-2-hydroxypropyl)-N-phenylmethanesulfonamide]	90
O=S1(=O)CCCCN1CC(O)Cn1c2ccccc2c2ccccc21 (stereo not shown) [Compound 33, N-(3-(9H-Carbazol-9-yl)-2-hydroxypropyl)-1,2-thiazinane 1,1-dioxide]	35
COc1cccc(N(CC(O)Cn2c3ccccc3c3ccccc32)S(C)(=O)=O)c1 (stereo not shown) [Compound 73, N-(3-(9H-Carbazol-9-yl)-2-hydroxypropyl)-N-(3-methoxyphenyl)methanesulfonamide]	2990
CC(C)N1CCN(CC(O)Cn2c3ccc(F)cc3c3cc(F)ccc32)S1(=O)=O (stereo not shown) [Compound 224]	59
COCCN(CC(O)Cn1c2ccc(F)cc2c2ccc(F)cc21)S(C)(=O)=O (stereo not shown) [Compound 104, N-(3-(2,6-Difluoro-9H-carbazol-9-yl)-2-hydroxypropyl)-N-(2-methoxyethyl)methanesulfonamide]	3500
CS(=O)(=O)N(CC(O)Cn1c2ccc(F)cc2c2ccc(F)cc21)C1CC1 (stereo not shown) [Compound 167, N-Cyclopropyl-N-(3-(2,6-difluoro-9H-carbazol-9-yl)-2-hydroxypropyl)methanesulfonamide]	267
CCN(CC(O)Cn1c2ccccc2c2ccccc21)S(C)(=O)=O (stereo not shown) [Compound 45, N-(3-(9H-Carbazol-9-yl)-2-hydroxypropyl)-N-ethylmethanesulfonamide]	398
CS(=O)(=O)N(CC(O)Cn1c2ccc(F)cc2c2cc(F)ccc21)c1ccc(C2CCC2)cc1 (stereo not shown) [Compound 211, N-(4-Cyclobutylphenyl)-N-(3-(3,6-difluoro-9H-carbazol-9-yl)-2-hydroxypropyl)methanesulfonamide]	9240
CS(=O)(=O)N(CC(O)Cn1c2ccccc2c2ccccc21)c1ccc(F)cc1 (stereo not shown) [Compound 24, N-(3-(9H-Carbazol-9-yl)-2-hydroxypropyl)-N-(4-fluorophenyl)methanesulfonamide]	210
CS(=O)(=O)N(CC(O)Cn1c2ccccc2c2ccccc21)C1CCC1 (stereo not shown) [Compound 57, N-(3-(9H-Carbazol-9-yl)-2-hydroxypropyl)-N-cyclobutylmethanesulfonamide]	35
O=S1(=O)CCCN1CC(O)Cn1c2ccc(F)cc2c2cc(F)ccc21 (stereo not shown) [Compound 87, N-(3-(3,6-Difluoro-9H-carbazol-9-yl)-2-hydroxypropyl)-isothiazolidine-1,1-dioxide]	20

Compound	EC50 [nM]
COC1CCS(=O)(=O)N(CC(O)Cn2c3ccccc3c3ccccc32)C1 (stereo not shown) [Compound 112, N-(3-(9H-Carbazol-9-yl)-2-hydroxypropyl)-4-methoxy-1,2-thiazinane-1,1-dioxide]	44
CC(O)(CN(C1(C)CCC1)S(C)(=O)=O)Cn1c2ccc(F)cc2c2cc(F)ccc21 (stereo not shown) [Compound 187, N-(3-(3,6-Difluoro-9H-carbazol-9-yl)-2-hydroxy-2-methylpropyl)-N-(1-methylcyclobutyl)methanesulfonamide]	2750
O=S1(=O)CCCN1CC(O)Cn1c2ccc(F)cc2c2c(F)cccc21 (stereo not shown) [Compound 108, N-(3-(3,5-Difluoro-9H-carbazol-9-yl)-2-hydroxypropyl)-isothiazolidine-1,1-dioxide]	388
CCS(=O)(=O)N(Cc1ccco1)CC(O)Cn1c2ccccc2c2ccccc21 (stereo not shown) [Compound 2, N-(3-(9H-Carbazol-9-yl)-2-hydroxypropyl)-N-(furan-2-ylmethyl)ethanesulfonamide]	742
CCCN(CC(C)(O)Cn1c2ccc(F)cc2c2cc(F)ccc21)S(C)(=O)=O (stereo not shown) [Compound 151, N-(3-(3,6-Difluoro-9H-carbazol-9-yl)-2-hydroxy-2-methylpropyl)-N-propylmethanesulfonamide]	2260
CCOCCS(=O)(=O)N(Cc1ccco1)CC(O)Cn1c2ccccc2c2ccccc21 (stereo not shown) [Compound 12, N-(3-(9H-Carbazol-9-yl)-2-hydroxypropyl)-2-ethoxy-N-(furan-2-ylmethyl)ethanesulfonamide]	1010
CC(C)N1CCCN(CC(C)(O)Cn2c3ccc(F)cc3c3cc(F)ccc32)S1(=O)=O (stereo not shown) [Compound 218, 2-(3-(3,6-Difluoro-9H-carbazol-9-yl)-2-hydroxy-2-methylpropyl)-6-isopropyl-1,2,6-thiadiazinane-1,1-dioxide]	9780
CC1CCCC1N(CC(O)Cn1c2ccccc2c2ccccc21)S(C)(=O)=O (stereo not shown) [Compound 136, N-(3-(9H-Carbazol-9-yl)-2-hydroxypropyl)-N-(2-methylcyclopentyl)methanesulfonamide]	113
CCc1ccc(N(CC(O)Cn2c3ccc(F)cc3c3cc(F)ccc32)S(C)(=O)=O)cc1 (stereo not shown) [Compound 201, N-(3-(3,6-Difluoro-9H-carbazol-9-yl)-2-hydroxypropyl)-N-(4-ethylphenyl)methanesulfonamide]	1570
Cn1ccc2ccc(N(CC(O)Cn3c4ccccc4c4ccccc43)S(C)(=O)=O)cc21 (stereo not shown) [Compound 66, N-(3-(9H-Carbazol-9-yl)-2-hydroxypropyl)-N-(1-methyl-1H-indol-6-yl)methanesulfonamide]	9900
CC(O)(Cn1c2ccc(F)cc2c2cc(F)ccc21)C(C)(C)N1CCCS1(=O)=O (stereo not shown) [Compound 245, 2-(4-(3,6-Difluoro-9H-carbazol-9-yl)-3-hydroxy-2,3-dimethylbutan-2-yl)-isothiazolidine-1,1-dioxide]	1150
CS(=O)(=O)N(CC(O)Cn1c2ccccc2c2ccccc21)CC1CCCCO1 (stereo not shown) [Compound 53, N-(3-(9H-Carbazol-9-yl)-2-hydroxypropyl)-N-((tetrahydro-2H-pyran-2-yl)methyl)methanesulfonamide]	578
CCN1CCN(CC(O)Cn2c3ccc(F)cc3c3cc(F)ccc32)S1(=O)=O (stereo not shown) [Compound 216]	150
O=S(=O)(CC1CC1)N(Cc1ccco1)CC(O)Cn1c2ccccc2c2ccccc21 (stereo not shown) [Compound 15, N-(3-(9H-Carbazol-9-yl)-2-hydroxypropyl)-1-cyclopropyl-N-(furan-2-ylmethyl)methanesulfonamide]	592
CCCN(CC(O)Cn1c2ccc(F)cc2c2cc(F)ccc21)S(C)(=O)=O (stereo not shown) [Compound 153, N-(3-(3,6-Difluoro-9H-carbazol-9-yl)-2-hydroxypropyl)-N-propylmethanesulfonamide]	396
